For data set [1], the system named is methicillin-resistant Staphylococcus aureus (MRSA). Particulars: cited from earlier work.
A further data set relates to Escherichia coli. Briefly: Antimicrobial (printed 'antifungal') bioassay. It is filed as cell-based. How it is done: (§1) The tested pathogenic fungi, Staphylococcus aureus (MRSA), methicillin-sensitive Staphylococcus aureus (MSSA), Escherichia coli and Pseudomonas aeruginosa, were provided by Tongji Hospital of Tongji Medical College of Huazhong University of Science and Technology. All samples dissolved in MeOH were tested for antifungal activity in vitro by mycelial growth inhibitory rate method, a Poison Food Technique.
(§2) Potato dextrose agar (PDA) medium was used as the medium for all test fungi.
(§3) The media (100 ml) incorporating test samples were inoculated at the center of agar discs of the test fungi (4 mm diameter). Three replicate plates for each fungus were incubated at 26 °C for all test fungi. Control plates containing media mixed with MeOH (1 ml) were in cluded. After incubation for 24–48 h, the mycelial growth of fungi (mm) in both treated (T) and control (C) Petri dishes was measured diametrically in three different directions (decussation method) until the fungal growth in the control dishes was almost complete. The percentage of growth inhibition ( I) was calculated using the […]
(§4) Table S2. Antifungal Effects of Compounds 1−8 (MIC, μg/ml). fungi MRSA MSSA E. coli P. aeruginosa

For another data set, the system named is Pseudomonas aeruginosa. The experiment in a line: Antimicrobial (printed 'antifungal') bioassay. It is filed as cell-based. How it is done: as §1, §2, §3, §4
For data set [2], the system named is methicillin-resistant Staphylococcus aureus (MRSA). Briefly: Antimicrobial (printed 'antifungal') bioassay. It is filed as cell-based. The procedure: as §1, §2, §3, §4
Data set [3] has as its system methicillin-sensitive Staphylococcus aureus (MSSA). Briefly: Antimicrobial (printed 'antifungal') bioassay. It is filed as cell-based. The procedure: as §1, §2, §3, §4
Data set [4] can be described thus: Cytotoxic assay (MTT), noncancerous cell line. The note with it: human, Beas-2B bronchial epithelial cells (noncancerous). The procedure:
(§5) Four human cancer cell lines (A549, MCF-7, HepG2, and HL-60 cells), together with one noncancerous cell line, the human bronchial epithelial cells Beas-2B, were used in the cytotoxic activity assay. All cells were cultured in DMEM or RPMI- 1640 medium (HyClone, Logan, UT, USA), supplemented with 10% fetal bovine serum (HyClone) at 37 °C in a humidified atmosphere with 5% CO 2 . The cell survival assay was performed using the MTT method. Briefly, 100 μ L of a suspension of the adherent cells was seeded into each well of the 96 - well culture plates and allowed to adhere for 12 h before addition of the test compounds. The suspended cells were seeded at an initial density of 1 × 10^5 cells/mL immediately before the addition of the drug. Each tumor cell line was exposed for 48 h in triplicate to the test compounds at concentrations of 0.0625 , 0.32, 1.6, 8, and 40 μ M, with DDP (cis - platin, Sigma) and paclitaxel as positive controls. After incubation, culture supernatants were removed and exchanged with medium containing 0.5 mg/mL MTT. Then, the cells were incubated for 4 h at 37 °C in darkness , followed by the removal of the medium and adding 100 μ L dimethyl sulfoxide. The absorbance at 570 nm was detected and the data were expressed as the mean percentage of absorbance in treated vs. control cells.

A short description of a further data set: Cytotoxic assay (MTT). The note with it: human. How it is done: as §5
A further data set can be described thus: in vitro. The note with it: human, A549 cells. How it is done: Four human cancer cell lines (A549, MCF-7, HepG2, and HL-60 cells), together with one noncancerous cell line, the human bronchial epithelial cells Beas-2B, were used in the cytotoxic activity assay. […]
medium (HyClone, Logan, UT, USA), supplemented with 10% fetal bovine serum (HyClone) at 37 °C in a humidified atmosphere with 5% CO 2 . The cell survival assay was performed using the MTT method. Briefly, 100 μ L of a suspension of the adherent cells was seeded into each well of the 96 - well culture plates and allowed to adhere for 12 h before addition of the test compounds. The suspended cells were seeded at an initial density of 1 × 10^5 cells/mL immediately before the addition of the drug. Each tumor cell line was exposed for 48 h in triplicate to the test compounds at concentrations […]
positive controls. After incubation, culture supernatants were removed and exchanged with medium containing 0.5 mg/mL MTT. Then, the cells were incubated for 4 h at 37 °C in darkness , followed by the removal of the medium and adding 100 μ L dimethyl sulfoxide. The absorbance at 570 nm was detected and the data were expressed as the mean percentage of absorbance in treated vs. control cells.

The next data set has as its target human recombinant AChE (Homo sapiens, UniProt P22303). Briefly: biochemical. The note with it: for inhibition at 100 µM: AChE, read-out: Inhibitory Ratio at 100 μM; for IC50: read-out: IC50 Value against AChE. How it is done: Briefly, 20 µL AChE (0.05 U/mL) and 20 µL different concentrations of compounds (0.1 M phosphate buffer, pH 8.0) containing 0.1% Triton X-100) were pre-incubated at 37 °C for 30 min, then 160 µL of the assay solution which consisted of a 0.1 M phosphate buffer pH 8.0, with the addition of 600 µM 5,5’-dithio-bis (2-nitrobenzoic acid) and 550 µM acetylthiocholine iodide (ATCh) were added in the 96-well plates. The absorbance value at 425 nm was recorded for 15 min and enzyme activity was calculated from the slope of the obtained linear trend. The reaction rates were compared and the % inhibition due to the presence of tested inhibitors was calculated. Each concentration was analyzed in triplicate, and IC50 values were determined graphically from log concentration inhibition curves (Graphpad Prism 5, GraphPad Software Inc., San Diego, CA, USA).

Values after ≈ are worked out from the molar mass of the structure shown. Like-named read-outs stand apart in the source and are kept apart here. Bounds are passed on as bounds.

Chain of human recombinant AChE (P22303 32-614): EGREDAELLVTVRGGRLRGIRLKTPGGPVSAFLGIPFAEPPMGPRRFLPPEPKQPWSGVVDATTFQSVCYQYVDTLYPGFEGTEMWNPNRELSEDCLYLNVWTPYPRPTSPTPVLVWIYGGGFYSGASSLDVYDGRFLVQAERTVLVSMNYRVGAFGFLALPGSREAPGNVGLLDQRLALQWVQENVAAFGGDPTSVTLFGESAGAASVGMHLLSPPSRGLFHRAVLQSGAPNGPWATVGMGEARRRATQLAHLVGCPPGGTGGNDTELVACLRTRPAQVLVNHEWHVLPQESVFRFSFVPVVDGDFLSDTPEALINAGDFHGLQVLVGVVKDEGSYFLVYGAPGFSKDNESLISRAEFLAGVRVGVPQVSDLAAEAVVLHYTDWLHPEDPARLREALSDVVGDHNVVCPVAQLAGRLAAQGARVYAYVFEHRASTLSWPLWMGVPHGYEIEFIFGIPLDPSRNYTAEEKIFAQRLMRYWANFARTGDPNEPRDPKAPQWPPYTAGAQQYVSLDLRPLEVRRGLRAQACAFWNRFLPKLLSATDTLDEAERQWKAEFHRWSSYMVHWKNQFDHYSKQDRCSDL

Consider Apiroaspertrione A, for which the “activity against MRSA (in words)” value in [1] is “effective activity”.
As to `C=C(C)[C@@H]1[C@H](OC(C)=O)C[C@@]2(C)Oc3cc(C)oc(=O)c3C[C@@H]2[C@@]1(C)[C@H](CC(=O)OC)OC(C)=O` [Compound 3, Asperversin C], the MIC was more than 100 µg/mL in the data set on Escherichia coli (E. coli, read-out: MIC); more than 100 µg/mL in the data set on Pseudomonas aeruginosa (P. aeruginosa, read-out: MIC); more than 100 µg/mL in [2] (read-out: MIC); more than 100 µg/mL in data set [3] (read-out: MIC). Besides, the IC50 at 48 h (in [4]; in “Cytotoxic assay (MTT)” (HL-60 cells); in the data set “Cytotoxic assay (MTT)” (HepG2 cells); in the data set “Cytotoxic assay (MTT)” (MCF-7 cells); in “in vitro”) was more than 40 µM in each case. In addition, the inhibition at 100 µM at human recombinant AChE came out at 27.6%. In addition, the IC50 on human recombinant AChE was more than 40 µM.
As for `CN[C@H](CC(C)C)C(=O)N[C@H]1C(=O)N[C@@H](CC(N)=O)C(=O)N[C@H]2C(=O)N[C@H]3C(=O)N[C@H](C(=O)N[C@H](C(=O)O)c4cc(O)cc(O)c4-c4cc3ccc4O)[C@H](O)c3ccc(c(Cl)c3)Oc3cc2cc(c3O[C@@H]2O[C@H](CO)[C@@H](O)[C@H](O)[C@H]2O[C@H]2C[C@](C)(N)[C@H](O)[C@H](C)O2)Oc2ccc(cc2Cl)[C@H]1O` [vancomycin, reference compound], the MIC with Escherichia coli stood at 0.5 µg/mL (≈ 0.345 µM); against Pseudomonas aeruginosa, 0.8 µg/mL (≈ 0.552 µM); in data set [2] it was 1.2 µg/mL (≈ 0.828 µM); in [3] it was 0.5 µg/mL (≈ 0.345 µM).
Take `CC(=O)OC1CC2(C)Oc3cc(C)oc(=O)c3CC2C2(C)C=CC(=O)C(C)(C)C12` (stereo not drawn) [Compound 7, Asperversin G]: the MIC in the data set on Escherichia coli (E. coli, read-out: MIC) is more than 100 µg/mL; in the data set with Pseudomonas aeruginosa (P. aeruginosa, read-out: MIC), more than 100 µg/mL; in [2] (read-out: MIC), more than 100 µg/mL; in [3] (read-out: MIC), more than 100 µg/mL. Moreover, the IC50 at 48 h (in [4]; in “Cytotoxic assay (MTT)” (HL-60 cells); in the data set “Cytotoxic assay (MTT)” (HepG2 cells); in the data set “Cytotoxic assay (MTT)” (MCF-7 cells); in the data set “in vitro”) was more than 40 µM each time. Besides, the inhibition at 100 µM at human recombinant AChE is 92.4%. Also, the IC50 at human recombinant AChE came to 13.6 µM.
On to `CC(=O)O[C@@H]1C[C@@]2(C)Oc3cc(C)oc(=O)c3C[C@@H]2[C@@]2(C)[C@H](CC(=O)O)OC(C)(C)[C@H]12` [Compound 2, Asperversin B], for which the MIC in the data set with Escherichia coli (E. coli, read-out: MIC) is more than 100 µg/mL; with Pseudomonas aeruginosa (P. aeruginosa, read-out: MIC), more than 100 µg/mL; in data set [2] (read-out: MIC), more than 100 µg/mL; in data set [3] (read-out: MIC) it was more than 100 µg/mL. For the same compound, the IC50 at 48 h (in data set [4]; in “Cytotoxic assay (MTT)” (HL-60 cells); in “Cytotoxic assay (MTT)” (HepG2 cells); in “Cytotoxic assay (MTT)” (MCF-7 cells); in “in vitro”) was more than 40 µM throughout. Further, at human recombinant AChE, the inhibition at 100 µM was 36.2%. Further, on human recombinant AChE, the IC50 was more than 40 µM.
For `Cc1cc2c(c(=O)o1)C[C@@H]1[C@@]3(C)[C@@H](O)CC(=O)OC(C)(C)[C@@H]3[C@H](O)C[C@@]1(C)O2` [Compound 8, asperdemin], the minimal inhibitory concentration (MIC) is more than 100 µg/mL in the data set with Escherichia coli (E. coli, read-out: MIC); more than 100 µg/mL in the data set with Pseudomonas aeruginosa (P. aeruginosa, read-out: MIC); more than 100 µg/mL in data set [2] (read-out: MIC); more than 100 µg/mL in data set [3] (read-out: MIC). The IC50 at 48 h (in data set [4]; in the data set “Cytotoxic assay (MTT)” (HL-60 cells); in the data set “Cytotoxic assay (MTT)” (HepG2 cells); in the data set “Cytotoxic assay (MTT)” (MCF-7 cells); in the data set “in vitro”) was more than 40 µM throughout. Moreover, at human recombinant AChE, the inhibition at 100 µM is 25.3%. Besides, at human recombinant AChE, the IC50 is more than 40 µM.
For the compound `Cc1cc2c(c(=O)o1)C[C@@H]1[C@@]3(C)[C@@H](O)CC(=O)OC(C)(C)[C@@H]3CC[C@@]1(C)O2` [Compound 4, Asperversin D], the MIC in the data set with Escherichia coli (E. coli, read-out: MIC) is more than 100 µg/mL; in the data set with Pseudomonas aeruginosa (P. aeruginosa, read-out: MIC), more than 100 µg/mL; in data set [2] (read-out: MIC) it was more than 100 µg/mL; in data set [3] (read-out: MIC) it was more than 100 µg/mL. Also, the IC50 at 48 h (in data set [4]; in the data set “Cytotoxic assay (MTT)” (HL-60 cells); in the data set “Cytotoxic assay (MTT)” (HepG2 cells); in the data set “Cytotoxic assay (MTT)” (MCF-7 cells); in “in vitro”) was more than 40 µM each time. For the same compound, the inhibition at 100 µM on human recombinant AChE came to 50.2%. For the same compound, the IC50 on human recombinant AChE is more than 40 µM.
`CC(=O)OC1CC2(C)Oc3cc(C)oc(=O)c3CC2C2(C)C(O)CC(=O)OC(C)(C)C12` (stereo not drawn) [Compound 5, Asperversin E]: the MIC with Escherichia coli (E. coli, read-out: MIC) is more than 100 µg/mL; in the data set with Pseudomonas aeruginosa (P. aeruginosa, read-out: MIC) it was more than 100 µg/mL; in data set [2] (read-out: MIC) it was more than 100 µg/mL; in data set [3] (read-out: MIC) it was more than 100 µg/mL. In addition, the IC50 at 48 h (in data set [4]; in the data set “Cytotoxic assay (MTT)” (HL-60 cells); in “Cytotoxic assay (MTT)” (HepG2 cells); in “Cytotoxic assay (MTT)” (MCF-7 cells); in the data set “in vitro”) was more than 40 µM throughout. Moreover, at human recombinant AChE, the inhibition at 100 µM is 48.7%. On human recombinant AChE, the IC50 was more than 40 µM.
As for `CC(=O)O[C@H]1CC(=O)OC(C)(C)[C@@H]2[C@H](OC(C)=O)C[C@@]3(C)Oc4cc(C)oc(=O)c4C[C@@H]3[C@@]12C` [Compound 6, Asperversin F], the MIC in the data set on Escherichia coli (E. coli, read-out: MIC) was more than 100 µg/mL; in the data set on Pseudomonas aeruginosa (P. aeruginosa, read-out: MIC), more than 100 µg/mL; in data set [2] (read-out: MIC) it was more than 100 µg/mL; in [3] (read-out: MIC), more than 100 µg/mL. In addition, the IC50 at 48 h (in data set [4]; in the data set “Cytotoxic assay (MTT)” (HL-60 cells); in the data set “Cytotoxic assay (MTT)” (HepG2 cells); in “Cytotoxic assay (MTT)” (MCF-7 cells); in “in vitro”) was more than 40 µM each time. The inhibition at 100 µM at human recombinant AChE amounted to 62.9%. The 50% inhibitory concentration (IC50) at human recombinant AChE is more than 40 µM.
As for `COC(=O)C[C@@H]1OC(C)(C)[C@@H]2[C@H](OC(C)=O)C[C@@]3(C)Oc4cc(C)oc(=O)c4C[C@@H]3[C@@]12C` [Compound 1, Asperversin A], the minimal inhibitory concentration (MIC) with Escherichia coli (E. coli, read-out: MIC) was more than 100 µg/mL; in the data set on Pseudomonas aeruginosa (P. aeruginosa, read-out: MIC), more than 100 µg/mL; in data set [2] (read-out: MIC), more than 100 µg/mL; in [3] (read-out: MIC), more than 100 µg/mL. Besides, the IC50 at 48 h (in data set [4]; in the data set “Cytotoxic assay (MTT)” (HL-60 cells); in “Cytotoxic assay (MTT)” (HepG2 cells); in “Cytotoxic assay (MTT)” (MCF-7 cells); in “in vitro”) was more than 40 µM throughout. For the same compound, the inhibition at 100 µM on human recombinant AChE was 35.7%. Moreover, the IC50 at human recombinant AChE is more than 40 µM.

Broadly, the MIC is the lowest concentration found to suppress growth. As a reminder, the IC50 is the point on the concentration scale where inhibition reaches its midpoint.

Values taken from paper PMC6025407, “Asperversins A and B, Two Novel Meroterpenoids with an Unusual 5/6/6/6 Ring from the Marine-Derived Fungus Aspergillus versicolor” (Marine Drugs, 2018).
